{"source": "patent US20040101488A1", "about": "“Method for the prevention of septic shock lethality using curcumin” (priority 2000, published 2004)", "key": {"[1]": {"tested_on": "mice injected with lipopolysaccharide (septic shock)", "assay": "LPS-induced septic shock in mice: survival and symptoms", "assay_type": "in vivo", "settings": "none prior"}, "[2]": {"tested_on": "adhesion of human peripheral neutrophils to endothelial cells from human umbilical cord", "assay": "Cell adherence assay: neutrophil adhesion to endothelial monolayers", "assay_type": "cell-based", "procedure": "Endothelial cells grown to confluency in 96 well plates were incubated without or with indicated concentrations of curcumin for 1 hr followed by induction without (hatched bars) or with (closed bars) LPS (1 μg/ml) for 6 hrs. The cells were then incubated with human peripheral neutrophils for 1 hr. The amount of neutrophils adhering to the endothelial cell monolayers was measured by a colorimetric assay as described in Example 6.\nPrimary endothelial cells were isolated from human umbilical cord. For isolation of the cells the umbilical cord vein was canulated and then perfused with phosphate buffer saline to remove blood and then incubated with 0.125% trypsin for 15 mins at 37° C. The vein was then perfused with PBS and the cells were collected. […] The viability of endothelial cells in culture was checked by trypan blue exclusion test and the purity was determined by E-selectin staining. […]\nAdhesion of neutrophils to endothelial monolayers was assayed as described previously (Dobrina A et al., J. Clin. Invest., 88:20-26 1991). […] The absorbance was determined at […] using an automated microplate reader (Anthos Labtech HT2, Austria)."}, "[3]": {"tested_on": "neutrophils in the liver of LPS injected mice", "assay": "Liver histology, chloroacetate esterase staining of neutrophils after LPS challenge", "settings": "24 hrs after LPS challenge, liver sections, FIG. 2"}, "[4]": {"tested_on": "mice injected with lipopolysaccharide (septic shock)", "assay": "LPS-induced septic shock in mice: survival and symptoms", "assay_type": "in vivo", "settings": "for Percentage Survival: prior to and after LPS (40 mg/kg i.p.), mice", "procedure": "In septic shock experiments, age-and body weight-matched (25-30 g) female swiss albino mice were injected intraperitoneally with 40 mg/kg LPS solubilised in 200 μl sterile 0.9% saline. Control animals received equal volumes of saline. For groups that were treated with curcumin, the mice were fed orally with 20 mg/kg to 60 mg/kg body weight curcumin suspended in olive oil (20 mg/ml) at various times prior to and after injecting LPS. The mice were fed with curcumin 4 hrs and 2 hrs prior to, simultaneously and 4 hrs, 16 hrs, 24 hrs, 48 hrs and 72 hrs after injecting LPS. Following this, the mice were observed every 2-3 hours after LPS injection with respect to septic shock symptoms such as fever, lethargy, diarrhea, watery eyes and survival.\nIntraperitoneal injection of high doses of LPS (40 mg/kg) induced lethal endotoxin shock in mice. […] The death occurred within 24-48 hrs after receiving LPS. To test whether curcumin protects mice injected with LPS from septic shock, we treated mice with varying doses of curcumin 4 hrs and 2 hrs prior to, simultaneously and 4 hrs, 16 hrs, 24 hrs, 48hrs and 72 hrs after injecting LPS. […] Overall, severity of the septic shock symptoms in treated group was much less in comparison with control groups (as shown in Table 2). The mice start recovering within 48 to 72 hrs. Most importantly, 70% of the mice treated with 40 mg/kg to 60 mg/kg curcumin survived from death (FIG. 1)."}}, "note": "“Also recorded” adds a separate entry of the source."}
{"molecule": "COc1cc(/C=C/C(=O)CC(=O)/C=C/c2ccc(O)c(OC)c2)ccc1O", "note": "[curcumin, diferuloylmethane]", "values": [{"measurement": "survival of recovered mice on repeated LPS injection", "setting": "[1]; curcumin only simultaneously with and after LPS (3, 6, 9, 24, 42 hrs)", "result": "all the animals survived; also recorded: all survived death"}, {"measurement": "severity of septic shock symptoms in recovered mice on repeated LPS injection", "setting": "[1]; curcumin only simultaneously with and after LPS", "result": "significant reduction in severity of septic shock symptoms"}, {"measurement": "adhesion of neutrophils to unstimulated endothelial monolayers", "setting": "[2]; 10 μM to 40 μM curcumin for 1 hr, no LPS", "result": "did not affect"}, {"measurement": "inhibition of neutrophil adhesion to LPS stimulated endothelial cells", "setting": "[2]; curcumin 40 μM for 1 hr, then LPS 1 μg/ml for 6 hrs, concentration dependent over 10 to 40 μM", "result": "almost complete inhibition"}, {"measurement": "extravasation of neutrophils in the liver versus untreated mice", "setting": "[3]", "result": "much reduced"}, {"measurement": "mice survived from death", "setting": "[4]; 40 mg/kg to 60 mg/kg curcumin orally, LPS 40 mg/kg i.p., FIG. 1", "result": 70, "unit": "%"}, {"measurement": "Percentage Survival", "setting": "[4]; curcumin 20 mg/kg body weight orally", "result": 0, "unit": "%"}, {"measurement": "Percentage Survival", "setting": "[4]; curcumin 40 mg/kg body weight orally", "result": 70, "unit": "%"}, {"measurement": "Percentage Survival", "setting": "[4]; curcumin 60 mg/kg body weight orally", "result": 70, "unit": "%"}, {"measurement": "severity of the septic shock symptoms versus control groups", "setting": "[4]; curcumin treated mice, LPS 40 mg/kg i.p., lethargy, watery eyes, diarrhea", "result": "much less"}, {"measurement": "protection of mice by low dose of curcumin", "setting": "[4]; low dose, LPS 40 mg/kg i.p.", "result": "not able to protect the mice"}]}
